The results in this text go back to patent publication US20180044734A1, “COMPOSITION FOR DIAGNOSING SKIN DAMAGE CAUSED BY FINE DUST, AND COMPOSITION COMPRISING GALANGIN AS ACTIVE INGREDIENT” (AMOREPACIFIC CORPORATION, priority 2015, published 2018).

Test [1] has as its system microdust-treated normal human keratinocytes. As to the kind of experiment: Real-time RT-PCR of microdust-responsive genes in microdust-treated keratinocytes treated with galangin. The test is classed as cell-based. The following applies: microdust 2.5 μm 12.5 μg in 1 mL, galangin 0.25-2 μM, 24 hours. Here is the method: The normal human keratinocytes cultured in Example 2 were treated 12.5 μg of the microdust with a particle diameter of 2.5 μm extracted in Example 1 in 1 mL of a cell culture medium and relative mRNA expression level was measured using the primers described in Tables 5 and 6 (TaqMan® primers, Applied Biosystems).
The microdust-treated normal human keratinocytes or the normal human keratinocytes cultured in Example 2 but not treated with microdust were treated with galangin at different concentrations (0.25 μM, 0.5 μM, 1 μM and 2 μM). 24 hours later, the culture medium was removed and the cells were washed with 2 mL of phosphate-buffered saline (PBS). Then, RNA was isolated from the cells using TRIzol reagent (Invitrogen, Carlsbad, Calif., USA). For S100A8, S100A9, CYP1A1, CYP1B1, PI3, IL36G, IL1B, CCL27, IL8, NOX6, XDH, CXCL14, H19, CASP14 and CASP8, expression level was measured after treating with 0.25 μM galangin. The galangin was purchased commercially from Nanjing Chemlin Chemical (CAS No. 548-83-4). The isolated RNA was purified once again with Qiagen RNA kit Qiagen, Valencia, Calif.) and the quality of RNA was determined using Agilent 2100 BioAnalyzer (Agilent Technologies, Santa Clara, Calif., USA). cDNA synthesized from the RNA using SuperScript reverse transcriptase (RT) kit (Invitrogen, Carlsbad, Calif.) was quantitatively analyzed by real time-reverse transcription polymerase chain reaction (Q-RT-PCR) using the primers described in Tables 5 and 6. The change in gene expression pattern was evaluated in real time using TaqMan gene expression assay kit (Applied Biosystems, Foster City, Calif.). The Q-RT-PCR and real-time PCR were conducted in accordance with the standard protocols of Life Technologies, specifically, 95° C. for 20 seconds followed by 40 cycles of 95° C. for 3 seconds and 60° C. for 30 seconds.
A general note: Real-time PCR tracks product formation cycle by cycle.

Test [2] has as its system filaggrin, keratin 10, keratin 1, keratin 13 and keratin 15 mRNA in normal human keratinocytes. Put plainly: Real-time PCR of gene expression in normal keratinocytes upon treatment with galangin. The test is classed as cell-based. To be noted: cells not treated with microdust; galangin 0, 0.5, 1, 2 μM, 24 hours. On the procedure: After treating the normal human keratinocytes cultured in Example 2 with galangin at different concentrations (0 μM, 0.5 μM, 1 μM and 2 μM), the relative mRNA expression level of filaggrin, keratin 10, keratin 1, keratin 13 and keratin 15 was measured.
24 hours after the treatment with galangin, the culture medium was removed and the cells were washed with 2 mL of phosphate-buffered saline (PBS). Then, RNA was isolated from the cells using TRIzol reagent (Invitrogen, Carlsbad, Calif., USA).
Subsequently, the change in gene expression was evaluated by real-time PCR in the same manner as in Example 5. For filaggrin, TaqMan® Hs00856927_g1 was used as the primer.

For test [3], the system named is normal human keratinocytes. As to the kind of experiment: Differentiation of keratinocytes under optical microscope. It counts as cell-based. To be noted: cells not treated with microdust; galangin 0, 1, 2 μM, 24 hours. Here is the method:
The normal human keratinocytes cultured in Example 2 were treated with galangin at different concentrations (0 μM, 1 μM and 2 μM). 24 hours later, the culture medium was removed and the degree of differentiation of the keratinocytes was observed under an optical microscope (Olympus IX71, x40 and x200).

A further test deals with filaggrin protein. Put plainly: Filaggrin protein expression by blotting with filaggrin antibody. It counts as cell-based, human. The following applies: galangin 0, 0.5, 1, 2 μM, 24 hours; normalized to β-actin. Here is the method:
The normal human keratinocytes cultured in Example 2 were treated with galangin at different concentrations (0 μM, 0.5 μM, 1 μM and 2 μM). 24 hours later, the culture medium was removed and the cells were washed with 2 mL of phosphate-buffered saline (PBS). After adding cell lysis buffer and vortexing, proteins were quantified from the obtained supernatant. The proteins obtained from the epidermis of normal skin and dry skin were loaded on SDS gel and then blotted using the filaggrin antibody (Covance, France). The quantification result was normalized to that of β-actin (Sigma, USA).

In the case of `O=c1c(O)c(-c2ccccc2)oc2cc(O)cc(O)c12` [galangin], the “expression of genes whose expression is increased in skin cells stimulated by microdust” value in test [1] (FIGS. 2a-2k) is reported as “decreased expression”. Besides, the “expression of genes increased or decreased in skin cells stimulated by microdust” value in test [1] (FIGS. 2 and 3) is given as “returned to the normal level”. Further, the “expression of genes whose expression is decreased in skin cells stimulated by microdust” value in test [1] (FIGS. 3a-3k) was “increased expression”. In test [2], the “relative mRNA expression level of filaggrin” value is listed as “increased expression with increasing galangin concentration”, the “relative mRNA expression level of keratin 1” value was “increased expression with increasing galangin concentration”, the “relative mRNA expression level of keratin 10” value is “increased expression with increasing galangin concentration” and the “relative mRNA expression level of keratin 13” value is on record as “increased expression with increasing galangin concentration”. In test [2], the “relative mRNA expression level of keratin 15” value is “increased expression with increasing galangin concentration”. Further, the “degree of differentiation of the keratinocytes” value in test [3] is recorded as “active differentiation with increasing galangin concentration”. The “expression of filaggrin protein” value in the test with filaggrin protein was “increased with increasing galangin concentration”.
